Assay results reported in US12371748B2, “Genetic markers for predicting responsiveness to therapy with HDL-raising or HDL mimicking agent” (Hoffmann-La Roche Inc., priority 2014, dated 2025).

Test system: patients recently hospitalized for an Acute Coronary Syndrome (ACS)
Assay: dal-OUTCOMES pharmacogenomic study: cardiovascular events by ADCY9 genotype (Cox proportional hazards)
Format: in vivo, human
Parameters: key to Responsiveness to treatment: NR = non-responsive; PR = partially responsive; R = responsive
Conditions: for HR, dal-OUTCOMES: per copy of minor allele; for Hazard ratio (dal vs placebo): time to events
Experimental: Dal-OUTCOMES trial (NC20971) was a double blind, randomized, placebo-controlled, parallel group, multi-center, phase III study to assess the safety and efficacy of the CETP inhibitor dalcetrapib in patients recently hospitalized for an Acute Coronary Syndrome (ACS). At time of the interim analysis the study included 15871 randomized patients, distributed over two treatment arms: placebo (7933 patients) and dalcetrapib (600 mg daily; 7938 patients). […] The dal-OUTCOMES study details can be found in G. Schwartz et al., N. Engl. J. Med. 367; 22, 2012.
dal-Outcomes patients were recruited 4 to 12 weeks following hospitalization for acute coronary syndrome characterized by elevated cardiac biomarkers, with symptoms of acute myocardial ischemia, ischemic electrocardiographic abnormalities that were new or presumed to be new, or loss of viable myocardium on imaging. Patients without elevated cardiac biomarkers were eligible to participate if symptoms of acute myocardial ischemia were accompanied by electrocardiographic changes that were new or presumed to be new and by additional evidence of obstructive coronary disease. (Schwartz G G et al. Am Heart J 2009; 158:896-901 e3).
All patients were following individualized programs to target LDL cholesterol levels of 100 mg per deciliter (2.6 mmol per liter) or lower by statin if tolerated and diet. No specific statin agent was specified, and patients were not excluded based on LDL cholesterol values. Patients with serum triglyceride levels of 400 mg per deciliter (4.5 mmol per liter) or higher were excluded. (Schwartz G G et al. N Engl J Med 2012; 367:2089-99) Eligible participants to the dal-Outcomes trial entered a single-blind placebo run-in period of approximately 4 to 6 weeks to allow for patients to stabilise and for completion of planned revascularisation procedures. At the end of the run-in period, eligible patients in stable condition were randomised in a 1:1 ratio to 600 mg of dalcetrapib or placebo on top of evidence-based medical care for acute coronary syndrome. Cardiovascular events were adjudicated by an independent clinical endpoint committee. For the pharmacogenomics study, 6338 patients were recruited from April 2008 through July 2010 at 461 sites in 14 countries and provided written informed consent to participate to the genetic study of the dal-OUTCOMES trial. DNA was extracted from whole blood. Following genomic data cleanup, samples from 5749 Caucasian patients were used for the discovery genome-wide association study (GWAS).
The Illumina Infinium HumanOmni2.5Exome-8v1_A BeadChip including 2,567,845 genetic variants (Illumina, San Diego, California) was used for the discovery GWAS of 5749 Caucasian participants to the dal-OUTCOMES study. The chromosome 16 region including 5 genes upstream and downstream of the adenylate cyclase type 9 (ADCY9) gene (CHR16: 3,400,000-4,600,000) was imputed using IMPUTE2, providing 17,764 variants for analysis with an average completion rate of 99.76%. A Sequenom panel was used for the confirmation of imputed single nucleotide polymorphisms (SNPs) in the ADCY9 gene identified in dal-OUTCOMES and were tested in the dal-PLAQUE-2 study, including 20 SNPs with P values<0.05 from the discovery GWAS.
Genome-wide association study (GWAS)—Genome-wide genotyping was performed using 200 ng of genomic DNA in GLP-environment at the Beaulieu-Saucier Pharmacogenomics Centre (Montreal, Canada). The Illumina Infinium HumanOmni2.5Exome-8v1_A BeadChip (Illumina, San Diego, CA) including 2,567,845 genomic markers was used and processed according to the manufacturer's specifications. This chip includes over 200,000 exome variants identified through the Exome Chip Consortium. The remaining BeadChip content is a mix of rare and common SNPs from the 1000 Genome Project designed to be maximally informative for diverse world populations. Each BeadChip was scanned and analyzed using the Illumina iScan Reader. […]

## CCC(CC)CC1(C(=O)Nc2ccccc2SC(=O)C(C)C)CCCCC1 [dalcetrapib, thioisobutyric acid S-(2-{[1-(2-ethyl-butyl)-cyclohexanecarbonyl]-amino}-phenyl) ester]
Dalcetrapib arm, genetic effect
  HR, association of rs2238448 with events in dal-OUTCOMES: 0.67
Dalcetrapib arm, rs1967309 AA
  Patients with events: 38
  Patients without events: 447
Dalcetrapib arm, rs1967309 AG
  Patients with events: 176
  Patients without events: 1203
Dalcetrapib arm, rs1967309 GG
  Patients with events: 176
  Patients without events: 802
rs1967309, Cox additive genetic model
  HR, dal-OUTCOMES: 0.651
rs1967309 AA
  HR, dalcetrapib compared to placebo, coronary revascularizations removed from the endpoint: 0.60
  Responsiveness to treatment: R
  Hazard ratio (dal vs placebo): 0.625
rs1967309 AA (n=961)
  reduction in pre-specified composite endpoint with dalcetrapib compared to placebo: 39%
rs1967309 AA (n=961), discovery cohort
  HR, composite endpoint, dalcetrapib compared to placebo: 0.61
rs1967309 AG
  Responsiveness to treatment: PR
  Hazard ratio (dal vs placebo): 0.953
rs1967309 GG
  Responsiveness to treatment: NR
  Hazard ratio (dal vs placebo): 1.248
rs1967309 GG (n=1984)
  increase in cardiovascular events, dalcetrapib versus placebo: 27%
rs1967309 GG (n=1984), discovery cohort
  HR, cardiovascular events, dalcetrapib versus placebo: 1.27
rs1967309 heterozygous AG
  response to dalcetrapib in words: intermediate response
rs1967309 heterozygous AG (n=2796), discovery cohort
  HR, cardiovascular events, dalcetrapib versus placebo: 0.94
rs2238448, Cox additive genetic model
  HR, dal-OUTCOMES: 0.671
rs2238448 CC
  Responsiveness to treatment: NR
  Hazard ratio (dal vs placebo): 1.291
rs2238448 CT
  Responsiveness to treatment: PR
  Hazard ratio (dal vs placebo): 0.974
rs2238448 TT
  Responsiveness to treatment: R
  Hazard ratio (dal vs placebo): 0.657
rs2239310, Cox additive genetic model
  HR, dal-OUTCOMES: 0.674
rs2239310 AA
  Responsiveness to treatment: NR
  Hazard ratio (dal vs placebo): 1.150
rs2239310 AG
  Responsiveness to treatment: PR
  Hazard ratio (dal vs placebo): 0.971
rs2239310 GG
  Responsiveness to treatment: R
  Hazard ratio (dal vs placebo): 0.623
rs2283497, Cox additive genetic model
  HR, dal-OUTCOMES: 0.766
rs2283497 GG
  Responsiveness to treatment: NR
  Hazard ratio (dal vs placebo): 1.226
rs2283497 GT
  Responsiveness to treatment: PR
  Hazard ratio (dal vs placebo): 0.999
rs2283497 TT
  Responsiveness to treatment: R
  Hazard ratio (dal vs placebo): 0.581
rs2531967, Cox additive genetic model
  HR, dal-OUTCOMES: 0.734
rs2531967 AA
  Responsiveness to treatment: R
  Hazard ratio (dal vs placebo): 0.786
rs2531967 AG
  Responsiveness to treatment: PR
  Hazard ratio (dal vs placebo): 0.855
rs2531967 GG
  Responsiveness to treatment: NR
  Hazard ratio (dal vs placebo): 1.121
rs2531971, Cox additive genetic model
  HR, dal-OUTCOMES: 0.664
rs2531971 AA
  Responsiveness to treatment: R
  Hazard ratio (dal vs placebo): 0.660
rs2531971 AC
  Responsiveness to treatment: PR
  Hazard ratio (dal vs placebo): 0.965
rs2531971 CC
  Responsiveness to treatment: NR
  Hazard ratio (dal vs placebo): 1.254
rs3730119, Cox additive genetic model
  HR, dal-OUTCOMES: 0.763
rs3730119 AA
  Responsiveness to treatment: R
  Hazard ratio (dal vs placebo): 0.472
rs3730119 AG
  Responsiveness to treatment: PR
  Hazard ratio (dal vs placebo): 0.887
rs3730119 GG
  Responsiveness to treatment: NR
  Hazard ratio (dal vs placebo): 1.059
rs4786454, Cox additive genetic model
  HR, dal-OUTCOMES: 0.668
rs4786454 AA
  Responsiveness to treatment: R
  Hazard ratio (dal vs placebo): 0.573
rs4786454 AG
  Responsiveness to treatment: PR
  Hazard ratio (dal vs placebo): 0.91
rs4786454 GG
  Responsiveness to treatment: NR
  Hazard ratio (dal vs placebo): 1.062
rs8049452, Cox additive genetic model
  HR, dal-OUTCOMES: 1.413
rs8049452 CC
  Responsiveness to treatment: R
  Hazard ratio (dal vs placebo): 0.804
rs8049452 CT
  Responsiveness to treatment: PR
  Hazard ratio (dal vs placebo): 0.971
rs8049452 TT
  Responsiveness to treatment: NR
  Hazard ratio (dal vs placebo): 1.543
rs8061182, Cox additive genetic model
  HR, dal-OUTCOMES: 1.343
